Assays:
[1] = system: prediabetic adult female NOD/Lt mice; assay: PI-88 treatment of prediabetic NOD/Lt mice, onset of autoimmune diabetes; assay type: in vivo, mouse; details: PI-88 10 mg/kg/day i.p. from 10.5 weeks of age, vs saline controls
From the text: FIG. 3: PI-88 treatment prevents development of autoimmune diabetes in NOD/Lt mice. […] The incidence of diabetes in the holding female NOD/Lt mouse colony of the inventors is 60%.
Studies conducted by the inventors have shown that heparanase transcripts are increased 7-fold in prediabetic and diabetes-onset NOD mice, compared to neonatal NOD mice; only background levels were detected in normal CBA/H mice (see TABLE 1).

[2] = system: BALB/c (H-2d) islet allografts in CBA/H (H-2k) mice; assay: BALB/c islet allograft survival in CBA/H mice; assay type: in vivo, mouse; details: 7 days post-transplant, PI-88 treated recipient vs control
From the text: HS plays a critical role in maintaining the integrity and survival of islets and islet beta cells. […] It is therefore possible that heparanase also plays an important role in the immunological destruction of islet allografts (even in the absence of autoimmune attack). […] Heparanase inhibitors therefore represent an anti-rejection strategy for islet transplants in allogeneic hosts and have the capacity to protect grafted islets from both alloimmune and autoimmune attack.

[3] = system: lipopolysaccharride (LPS)-induced inflammation; details: in vivo treatment, rodents; cited from earlier work
[4] = system: NODscid islet isografts in diabetic NOD/Lt female mice; assay: NODscid islet isografts in diabetic NOD/Lt mice, recurrence of autoimmune disease; assay type: in vivo, mouse
From the text: FIG. 8: (a) PI-88 therapy prevents disease recurrence in islet isografts. Isografts of 450-500 female NODscid islets transplanted beneath the kidney capsule of diabetic NOD/Lt female mice return non-fasting blood glucose levels to the normal range (shaded region defines the normal range). Without further treatment in a control recipient (circles), hyperglycemia returned from day 3. In contrast, an NODscid islet isograft maintains normoglycemia for up to 14 days in a diabetic NOD mouse treated with PI-88 (10 mg/kg/day i.p.) from day 3 (squares).
Consequently in vivo treatment of transplanted mice with PI-88 should prevent islet allograft rejection, disease recurrence in islet isografts (see FIG. 8) and facilitate the survival and function of islet allografts in diabetic NOD/Lt mice. To assess whether PI-88 therapy is graft-protective, NODscid islets were transplanted to autoimmune diabetic NOD mice 400-500 islets/graft. The mice were treated with PI-88 (10 mg/kg/day) i.p. from day 3 post-transplant (after graft revascularisation). Control transplanted mice were treated with saline. Graft function was monitored by measurement of non-fasting blood glucose levels (using a glucometer (MediSense 2)) 2-3×/week.

BALB/c islet beta cells = assay: Islet beta cell survival in vitro after heparitinase treatment; assay type: cell-based, mouse; details: 5-50 μg/ml heparin in culture, P<0.0001
From the text: FIG. 9: Isolated islets dispersed into single cells are predominantly insulin-producing beta cells, as confirmed by immunofluorescence. In contrast to control islet cells that remained intact over a 2 day culture period, beta cells treated for 1 hr with bacterial heparitinases (heparinases) (I+II+III; 0.25 U/ml) died (a). Placement of treated cells on an ECM (produced in vitro by a cell line) was able to largely rescue the beta cells from heparitinase-induced cell death (a).
In vitro studies were undertaken to further validate this concept. Isolated BALB/c islets dispersed into single cells using Dispase (1 mg/ml) consist predominantly of insulin-producing beta cells, as confirmed by immunofluorescence. […] Placement of treated cells on an ECM (produced in vitro by a cell line) was able to largely rescue the beta cells from heparitinase-induced cell death (P<0.0001) (FIG. 9(a)). These findings indicate that islet beta cells need cell-associated HS to survive. […] Islet beta cells therefore require cell-associated HS to remain viable and healthy.

skin allograft = details: heparins exhibiting some anti-heparanase activity, mice; cited from earlier work

PI-88
onset of clinical diabetes [1]: prevents the onset of clinical diabetes in mice up to 24 weeks of age | islet allograft histology [2]: better preservation of the engrafted allogeneic islets | LPS-induced inflammation [3]: prevented | leukocyte behaviour by intra-vital microscopy [3]: leukocyte rolling and adherence to the vascular BM but no extravasation | time normoglycemia (non-fasting blood glucose) maintained by islet isograft ([4]; PI-88 10 mg/kg/day i.p. from day 3 post-transplant, control hyperglycemic from day 3): up to 14 days | isograft histology at harvest (hematoxylin and eosin) ([4]; PI-88-treated mouse, control isograft showed aggressive autoimmune destruction): revascularised islets

heparin
rescue of heparitinase-treated beta cells from cell death (BALB/c islet beta cells): efficiently rescued | skin allograft survival (skin allograft): prolonged skin allograft survival

— patent US20110104173A1, “INHIBITION OF DEGRADATION OF EXTRACELLULAR MATRIX” (The Australian National University, priority 2006, published 2011)
